Measured values from the kinase profiling compilation of Christmann-Franck et al. (2016).
Each block holds one compound with its values, some of them ahead of it.

How the values were obtained:
Experiment in all cases: radiometric filter-binding kinase assay
PKN2 (human) = PKN2 (human) (UniProt Q16513)
EPHA2 (human) = EPHA2 (human) (UniProt P29317)
CDK2 CCNA2 (human) = CDK2 CCNA2 (human) (UniProt P20248+P24941)
AURKB (human) = AURKB (human) (UniProt Q96GD4)
CSK (human) = CSK (human) (UniProt P41240)
EPHB1 (human) = EPHB1 (human) (UniProt P54762)
EPHA4 (human) = EPHA4 (human) (UniProt P54764)
DYRK3 (human) = DYRK3 (human) (UniProt O43781)
CaMK1 (human) = CaMK1 (human) (UniProt Q14012)
MAPK10 (human) = MAPK10 (human) (UniProt P53779)
MAP2K1 (human) = MAP2K1 (human) (UniProt Q02750)
EPHB2 (human) = EPHB2 (human) (UniProt P29323)
EPHB3 (human) = EPHB3 (human) (UniProt P54753)
PAK6 (human) = PAK6 (human) (UniProt Q9NQU5)
CHEK1 (human) = CHEK1 (human) (UniProt O14757)
TTK (human) = TTK (human) (UniProt P33981)
TBK1 (human) = TBK1 (human) (UniProt Q9UHD2)
NUAK1 (human) = NUAK1 (human) (UniProt O60285)
IKBKB (human) = IKBKB (human) (UniProt O14920)
CHEK2 (human) = CHEK2 (human) (UniProt O96017)
MAPK8 (human) = MAPK8 (human) (UniProt P45983)
SRC (human) = SRC (human) (UniProt P12931)
LCK (mouse) = settings: accession and sequence are those of the human protein
MST4 (human) = MST4 (human) (UniProt Q9P289)
[1] = test system: PAK2 (human), Q13177 [T402E]
MAP3K7 TAB1 (human) = MAP3K7 TAB1 (human) (UniProt Q15750+O43318)
RPS6KA3 KD1 KD2 (human) = RPS6KA3 KD1 KD2 (human) (UniProt P51812)
TAOK1 (human) = TAOK1 (human) (UniProt Q7L7X3)
GCK (human) = GCK (human) (UniProt Q12851)
ROCK2 (rat) = settings: accession and sequence are those of the human protein
MINK1 (human) = MINK1 (human) (UniProt Q8N4C8)
[2] = test system: AKT1 (human), P31749 [S473D]
PAK4 (human) = PAK4 (human) (UniProt O96013)
MYLK (human) = MYLK (human) (UniProt Q15746)
MARK2 (human) = MARK2 (human) (UniProt Q7KZI7)
MAP3K11 (human) = MAP3K11 (human) (UniProt Q16584)

EPHA2 (human), sequence (P29317 whole entry, looked up): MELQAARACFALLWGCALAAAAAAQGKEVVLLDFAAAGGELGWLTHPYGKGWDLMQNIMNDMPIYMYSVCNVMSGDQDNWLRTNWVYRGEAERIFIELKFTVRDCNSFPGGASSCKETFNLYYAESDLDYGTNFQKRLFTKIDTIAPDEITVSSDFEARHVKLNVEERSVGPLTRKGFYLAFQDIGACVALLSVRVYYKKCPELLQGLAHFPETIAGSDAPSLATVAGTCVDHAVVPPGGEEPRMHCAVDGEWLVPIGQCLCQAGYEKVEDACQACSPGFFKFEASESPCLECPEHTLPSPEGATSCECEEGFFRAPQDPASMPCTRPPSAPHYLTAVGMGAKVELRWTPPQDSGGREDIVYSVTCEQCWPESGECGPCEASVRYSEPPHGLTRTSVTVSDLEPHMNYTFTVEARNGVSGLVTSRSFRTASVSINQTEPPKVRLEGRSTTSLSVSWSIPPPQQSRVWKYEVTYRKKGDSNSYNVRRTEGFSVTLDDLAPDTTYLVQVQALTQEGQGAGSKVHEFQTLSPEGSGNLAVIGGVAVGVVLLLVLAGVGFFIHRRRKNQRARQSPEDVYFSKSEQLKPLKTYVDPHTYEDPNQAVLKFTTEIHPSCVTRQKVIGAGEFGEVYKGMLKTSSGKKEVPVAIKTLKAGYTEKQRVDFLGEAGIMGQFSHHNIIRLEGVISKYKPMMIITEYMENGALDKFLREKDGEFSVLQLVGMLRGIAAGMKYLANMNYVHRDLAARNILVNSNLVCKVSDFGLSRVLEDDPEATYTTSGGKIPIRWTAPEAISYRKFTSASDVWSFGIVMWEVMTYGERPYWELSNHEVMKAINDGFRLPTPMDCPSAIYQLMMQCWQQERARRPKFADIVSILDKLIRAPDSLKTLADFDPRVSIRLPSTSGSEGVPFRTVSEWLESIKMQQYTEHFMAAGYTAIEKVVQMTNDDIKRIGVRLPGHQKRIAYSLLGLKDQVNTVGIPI
MAP2K1 (human), sequence (Q02750 whole entry, looked up): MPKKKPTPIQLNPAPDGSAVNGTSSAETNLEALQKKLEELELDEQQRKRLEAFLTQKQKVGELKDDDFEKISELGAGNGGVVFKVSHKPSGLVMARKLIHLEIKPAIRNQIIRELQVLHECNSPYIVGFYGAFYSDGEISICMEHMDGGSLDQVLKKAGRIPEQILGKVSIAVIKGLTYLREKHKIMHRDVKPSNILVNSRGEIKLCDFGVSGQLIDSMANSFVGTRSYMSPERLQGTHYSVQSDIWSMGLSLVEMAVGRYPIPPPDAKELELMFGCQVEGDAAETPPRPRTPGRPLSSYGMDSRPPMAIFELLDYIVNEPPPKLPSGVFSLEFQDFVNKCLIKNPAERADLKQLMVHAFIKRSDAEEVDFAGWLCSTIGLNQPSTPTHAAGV
CHEK2 (human), sequence (O96017 whole entry, looked up): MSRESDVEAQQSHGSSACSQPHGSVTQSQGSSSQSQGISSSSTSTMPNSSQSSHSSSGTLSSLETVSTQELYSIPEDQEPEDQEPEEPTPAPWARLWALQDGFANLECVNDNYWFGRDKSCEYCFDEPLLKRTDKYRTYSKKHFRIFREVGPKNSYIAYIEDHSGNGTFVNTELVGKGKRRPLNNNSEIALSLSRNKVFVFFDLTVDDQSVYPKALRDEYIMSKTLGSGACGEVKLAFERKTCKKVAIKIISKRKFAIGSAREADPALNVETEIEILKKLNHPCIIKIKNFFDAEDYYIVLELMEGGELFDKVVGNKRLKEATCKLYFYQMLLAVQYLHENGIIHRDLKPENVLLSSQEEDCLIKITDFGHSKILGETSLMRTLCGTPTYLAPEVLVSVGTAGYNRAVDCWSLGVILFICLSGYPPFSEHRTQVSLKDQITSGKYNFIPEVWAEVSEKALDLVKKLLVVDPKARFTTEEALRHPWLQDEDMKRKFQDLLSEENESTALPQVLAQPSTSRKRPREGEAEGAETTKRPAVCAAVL
TBK1 (human), sequence (Q9UHD2 whole entry, looked up): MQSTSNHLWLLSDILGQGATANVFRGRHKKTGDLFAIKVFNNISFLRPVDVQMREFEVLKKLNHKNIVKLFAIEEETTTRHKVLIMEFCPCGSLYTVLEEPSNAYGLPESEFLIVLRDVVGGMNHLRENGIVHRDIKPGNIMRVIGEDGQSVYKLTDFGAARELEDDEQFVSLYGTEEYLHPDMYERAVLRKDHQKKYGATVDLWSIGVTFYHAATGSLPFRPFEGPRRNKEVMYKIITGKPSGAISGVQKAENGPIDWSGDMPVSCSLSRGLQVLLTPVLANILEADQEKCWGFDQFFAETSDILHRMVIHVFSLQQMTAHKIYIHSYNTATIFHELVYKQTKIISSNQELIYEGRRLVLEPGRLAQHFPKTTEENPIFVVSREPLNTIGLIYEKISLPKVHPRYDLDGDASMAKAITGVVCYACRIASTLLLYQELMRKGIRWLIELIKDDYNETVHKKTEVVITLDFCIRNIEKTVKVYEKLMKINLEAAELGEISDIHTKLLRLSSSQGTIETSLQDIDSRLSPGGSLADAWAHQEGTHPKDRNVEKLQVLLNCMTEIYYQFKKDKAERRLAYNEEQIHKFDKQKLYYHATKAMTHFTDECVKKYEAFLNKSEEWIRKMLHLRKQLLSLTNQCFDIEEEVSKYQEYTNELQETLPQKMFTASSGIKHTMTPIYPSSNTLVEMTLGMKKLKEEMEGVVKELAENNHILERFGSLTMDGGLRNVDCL
TAOK1 (human), sequence (Q7L7X3 whole entry, looked up): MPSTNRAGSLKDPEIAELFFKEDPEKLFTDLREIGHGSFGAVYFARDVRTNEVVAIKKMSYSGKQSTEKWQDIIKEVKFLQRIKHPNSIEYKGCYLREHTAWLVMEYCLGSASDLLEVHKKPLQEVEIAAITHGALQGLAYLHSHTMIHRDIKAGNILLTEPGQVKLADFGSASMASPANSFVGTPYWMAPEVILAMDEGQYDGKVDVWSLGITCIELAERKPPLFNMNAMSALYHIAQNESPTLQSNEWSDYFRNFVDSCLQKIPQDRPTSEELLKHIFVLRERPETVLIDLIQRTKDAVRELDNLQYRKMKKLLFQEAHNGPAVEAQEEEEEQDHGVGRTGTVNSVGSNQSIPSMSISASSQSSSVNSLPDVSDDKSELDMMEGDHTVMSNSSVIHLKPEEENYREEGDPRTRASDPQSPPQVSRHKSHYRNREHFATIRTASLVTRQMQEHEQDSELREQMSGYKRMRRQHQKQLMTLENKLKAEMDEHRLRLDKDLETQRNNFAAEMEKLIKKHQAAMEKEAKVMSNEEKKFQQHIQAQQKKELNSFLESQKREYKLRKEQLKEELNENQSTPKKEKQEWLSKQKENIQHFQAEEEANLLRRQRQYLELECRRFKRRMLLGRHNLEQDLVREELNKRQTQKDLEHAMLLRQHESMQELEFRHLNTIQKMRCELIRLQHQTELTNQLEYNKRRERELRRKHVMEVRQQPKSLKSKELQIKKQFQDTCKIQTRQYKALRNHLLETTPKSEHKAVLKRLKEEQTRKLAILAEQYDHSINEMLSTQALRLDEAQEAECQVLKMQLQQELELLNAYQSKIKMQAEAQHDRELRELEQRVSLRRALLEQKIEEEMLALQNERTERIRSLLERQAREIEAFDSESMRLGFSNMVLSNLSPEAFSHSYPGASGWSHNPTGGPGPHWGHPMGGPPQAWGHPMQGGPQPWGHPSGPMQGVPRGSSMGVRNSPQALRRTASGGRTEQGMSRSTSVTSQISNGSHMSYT
PAK2 (human), Q13177 [T402E], sequence (Q13177 whole entry T402E, looked up): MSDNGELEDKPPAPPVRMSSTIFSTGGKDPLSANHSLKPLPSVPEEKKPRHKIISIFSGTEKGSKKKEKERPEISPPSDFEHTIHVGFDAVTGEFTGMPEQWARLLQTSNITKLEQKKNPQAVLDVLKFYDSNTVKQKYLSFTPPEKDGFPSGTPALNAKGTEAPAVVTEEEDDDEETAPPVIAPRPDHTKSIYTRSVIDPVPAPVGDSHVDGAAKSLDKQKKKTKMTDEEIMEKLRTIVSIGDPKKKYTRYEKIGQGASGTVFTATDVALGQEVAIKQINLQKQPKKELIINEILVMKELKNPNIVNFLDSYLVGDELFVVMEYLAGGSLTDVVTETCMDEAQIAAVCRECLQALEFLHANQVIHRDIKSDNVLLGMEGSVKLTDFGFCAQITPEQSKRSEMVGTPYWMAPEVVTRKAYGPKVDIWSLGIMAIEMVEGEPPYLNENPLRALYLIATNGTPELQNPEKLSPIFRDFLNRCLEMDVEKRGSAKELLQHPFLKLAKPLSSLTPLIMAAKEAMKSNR
NUAK1 (human), sequence (O60285 whole entry, looked up): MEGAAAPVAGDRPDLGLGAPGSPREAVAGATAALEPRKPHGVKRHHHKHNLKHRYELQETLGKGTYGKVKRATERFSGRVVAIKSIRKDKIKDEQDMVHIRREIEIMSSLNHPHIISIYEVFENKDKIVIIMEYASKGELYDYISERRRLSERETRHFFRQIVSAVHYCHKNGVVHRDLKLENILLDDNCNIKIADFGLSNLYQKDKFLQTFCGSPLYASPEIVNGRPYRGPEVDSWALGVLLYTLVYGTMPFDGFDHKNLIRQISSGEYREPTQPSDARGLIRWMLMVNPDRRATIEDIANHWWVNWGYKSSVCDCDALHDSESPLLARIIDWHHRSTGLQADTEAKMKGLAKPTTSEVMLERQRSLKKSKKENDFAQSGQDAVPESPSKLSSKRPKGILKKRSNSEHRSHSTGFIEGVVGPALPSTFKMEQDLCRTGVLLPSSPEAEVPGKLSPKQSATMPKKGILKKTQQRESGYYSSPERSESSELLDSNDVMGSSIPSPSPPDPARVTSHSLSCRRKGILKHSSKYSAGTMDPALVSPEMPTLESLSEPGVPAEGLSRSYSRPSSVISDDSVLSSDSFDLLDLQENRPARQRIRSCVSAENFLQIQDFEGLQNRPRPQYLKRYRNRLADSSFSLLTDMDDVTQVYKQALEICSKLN

residual activity (PKN2 (human); compound 1.0 µM): 94% | residual activity (PKN2 (human); compound 10.0 µM): 53% | residual activity (EPHA2 (human); compound 1.0 µM): 99% | residual activity (EPHA2 (human); compound 10.0 µM): 78% | residual activity (CDK2 CCNA2 (human); compound 1.0 µM): 32% | residual activity (CDK2 CCNA2 (human); compound 10.0 µM): 6% | residual activity (AURKB (human); compound 1.0 µM): 67% | residual activity (AURKB (human); compound 10.0 µM): 42% | residual activity (CSK (human); compound 1.0 µM): 83% | residual activity (CSK (human); compound 10.0 µM): 74% | residual activity (EPHB1 (human); compound 1.0 µM): 96% | residual activity (EPHB1 (human); compound 10.0 µM): 100% | residual activity (EPHA4 (human); compound 1.0 µM): 107% | residual activity (EPHA4 (human); compound 10.0 µM): 84% | residual activity (DYRK3 (human); compound 1.0 µM): 84% | residual activity (DYRK3 (human); compound 10.0 µM): 40% | residual activity (CaMK1 (human); compound 1.0 µM): 85% | residual activity (CaMK1 (human); compound 10.0 µM): 27% | residual activity (MAPK10 (human); compound 1.0 µM): 73% | residual activity (MAPK10 (human); compound 10.0 µM): 68% | residual activity (MAP2K1 (human); compound 1.0 µM): 117% | residual activity (MAP2K1 (human); compound 10.0 µM): 51% | residual activity (EPHB2 (human); compound 1.0 µM): 119% | residual activity (EPHB2 (human); compound 10.0 µM): 113% | residual activity (EPHB3 (human); compound 1.0 µM): 94% | residual activity (EPHB3 (human); compound 10.0 µM): 74% | residual activity (PAK6 (human); compound 1.0 µM): 89% | residual activity (PAK6 (human); compound 10.0 µM): 83% | residual activity (CHEK1 (human); compound 1.0 µM): 95% | residual activity (CHEK1 (human); compound 10.0 µM): 92% | residual activity (TTK (human); compound 1.0 µM): 89% | residual activity (TTK (human); compound 10.0 µM): 66% | residual activity (TBK1 (human); compound 1.0 µM): 80% | residual activity (TBK1 (human); compound 10.0 µM): 86% | residual activity (NUAK1 (human); compound 1.0 µM): 53% | residual activity (NUAK1 (human); compound 10.0 µM): 24% | residual activity (IKBKB (human); compound 1.0 µM): 6% | residual activity (IKBKB (human); compound 10.0 µM): 4% | residual activity (CHEK2 (human); compound 1.0 µM): 60% | residual activity (CHEK2 (human); compound 10.0 µM): 34% | residual activity (MAPK8 (human); compound 1.0 µM): 110% | residual activity (MAPK8 (human); compound 10.0 µM): 80% | residual activity (SRC (human); compound 1.0 µM): 89% | residual activity (SRC (human); compound 10.0 µM): 68% | residual activity (LCK (mouse); compound 1.0 µM): 82% | residual activity (LCK (mouse); compound 10.0 µM): 33% | residual activity (MST4 (human); compound 1.0 µM): 113% | residual activity (MST4 (human); compound 10.0 µM): 102% | residual activity ([1]; compound 1.0 µM): 83% | residual activity ([1]; compound 10.0 µM): 78% | residual activity (MAP3K7 TAB1 (human); compound 1.0 µM): 73% | residual activity (MAP3K7 TAB1 (human); compound 10.0 µM): 39% | residual activity (RPS6KA3 KD1 KD2 (human); compound 1.0 µM): 39% | residual activity (RPS6KA3 KD1 KD2 (human); compound 10.0 µM): 11% | residual activity (TAOK1 (human); compound 1.0 µM): 77% | residual activity (TAOK1 (human); compound 10.0 µM): 57% | residual activity (GCK (human); compound 1.0 µM): 77% | residual activity (GCK (human); compound 10.0 µM): 41% | residual activity (ROCK2 (rat); compound 1.0 µM): 88% | residual activity (ROCK2 (rat); compound 10.0 µM): 61% | residual activity (MINK1 (human); compound 1.0 µM): 66% | residual activity (MINK1 (human); compound 10.0 µM): 52% | residual activity ([2]; compound 1.0 µM): 81% | residual activity ([2]; compound 10.0 µM): 63% | residual activity (PAK4 (human); compound 1.0 µM): 112% | residual activity (PAK4 (human); compound 10.0 µM): 69% | residual activity (MYLK (human); compound 1.0 µM): 70% | residual activity (MYLK (human); compound 10.0 µM): 25% | residual activity (MARK2 (human); compound 1.0 µM): 89% | residual activity (MARK2 (human); compound 10.0 µM): 96% | residual activity (MAP3K11 (human); compound 1.0 µM): 87% | residual activity (MAP3K11 (human); compound 10.0 µM): 44%
Structure (SMILES): N#Cc1c(C2CCNCC2)cc(-c2c(O)cccc2OCC2CC2)nc1N

residual activity (PKN2 (human); compound 1.0 µM): 95% | residual activity (PKN2 (human); compound 10.0 µM): 70% | residual activity (PKN2 (human); compound 50.0 µM): 21% | residual activity (EPHA2 (human); compound 10.0 µM): 81% | residual activity (CDK2 CCNA2 (human); compound 1.0 µM): 103% | residual activity (CDK2 CCNA2 (human); compound 10.0 µM): 59% | residual activity (CDK2 CCNA2 (human); compound 50.0 µM): 34% | residual activity (AURKB (human); compound 1.0 µM): 97% | residual activity (AURKB (human); compound 10.0 µM): 62% | residual activity (AURKB (human); compound 50.0 µM): 22% | residual activity (CSK (human); compound 1.0 µM): 102% | residual activity (CSK (human); compound 10.0 µM): 87% | residual activity (CSK (human); compound 50.0 µM): 68% | residual activity (EPHB1 (human); compound 10.0 µM): 97% | residual activity (EPHA4 (human); compound 10.0 µM): 107% | residual activity (DYRK3 (human); compound 1.0 µM): 38% | residual activity (DYRK3 (human); compound 10.0 µM): 8% | residual activity (DYRK3 (human); compound 50.0 µM): 2% | residual activity (CaMK1 (human); compound 1.0 µM): 75% | residual activity (CaMK1 (human); compound 10.0 µM): 73% | residual activity (CaMK1 (human); compound 50.0 µM): 38% | residual activity (MAPK10 (human); compound 1.0 µM): 80% | residual activity (MAPK10 (human); compound 10.0 µM): 87% | residual activity (MAPK10 (human); compound 50.0 µM): 114% | residual activity (MAP2K1 (human); compound 1.0 µM): 99% | residual activity (MAP2K1 (human); compound 10.0 µM): 81% | residual activity (MAP2K1 (human); compound 50.0 µM): 75% | residual activity (EPHB2 (human); compound 10.0 µM): 116% | residual activity (EPHB3 (human); compound 10.0 µM): 88% | residual activity (PAK6 (human); compound 1.0 µM): 108% | residual activity (PAK6 (human); compound 10.0 µM): 106% | residual activity (PAK6 (human); compound 50.0 µM): 100% | residual activity (CHEK1 (human); compound 1.0 µM): 95% | residual activity (CHEK1 (human); compound 10.0 µM): 79% | residual activity (CHEK1 (human); compound 50.0 µM): 29% | residual activity (TTK (human); compound 10.0 µM): 83% | residual activity (TBK1 (human); compound 10.0 µM): 79% | residual activity (NUAK1 (human); compound 10.0 µM): 68% | residual activity (IKBKB (human); compound 1.0 µM): 99% | residual activity (IKBKB (human); compound 10.0 µM): 70% | residual activity (IKBKB (human); compound 50.0 µM): 46% | residual activity (CHEK2 (human); compound 1.0 µM): 84% | residual activity (CHEK2 (human); compound 10.0 µM): 79% | residual activity (CHEK2 (human); compound 50.0 µM): 14% | residual activity (MAPK8 (human); compound 1.0 µM): 96% | residual activity (MAPK8 (human); compound 10.0 µM): 108% | residual activity (MAPK8 (human); compound 50.0 µM): 101% | residual activity (SRC (human); compound 1.0 µM): 108% | residual activity (SRC (human); compound 10.0 µM): 81% | residual activity (SRC (human); compound 50.0 µM): 47% | residual activity (LCK (mouse); compound 1.0 µM): 115% | residual activity (LCK (mouse); compound 10.0 µM): 97% | residual activity (LCK (mouse); compound 50.0 µM): 59% | residual activity (MST4 (human); compound 10.0 µM): 68% | residual activity ([1]; compound 10.0 µM): 83% | residual activity (MAP3K7 TAB1 (human); compound 10.0 µM): 83% | residual activity (RPS6KA3 KD1 KD2 (human); compound 1.0 µM): 77% | residual activity (RPS6KA3 KD1 KD2 (human); compound 10.0 µM): 72% | residual activity (RPS6KA3 KD1 KD2 (human); compound 50.0 µM): 18% | residual activity (TAOK1 (human); compound 10.0 µM): 32% | residual activity (GCK (human); compound 10.0 µM): 73% | residual activity (ROCK2 (rat); compound 1.0 µM): 125% | residual activity (ROCK2 (rat); compound 10.0 µM): 83% | residual activity (ROCK2 (rat); compound 50.0 µM): 21% | residual activity (MINK1 (human); compound 10.0 µM): 66% | residual activity ([2]; compound 1.0 µM): 82% | residual activity ([2]; compound 10.0 µM): 89% | residual activity ([2]; compound 50.0 µM): 63% | residual activity (PAK4 (human); compound 1.0 µM): 85% | residual activity (PAK4 (human); compound 10.0 µM): 80% | residual activity (PAK4 (human); compound 50.0 µM): 67% | residual activity (MYLK (human); compound 1.0 µM): 78% | residual activity (MYLK (human); compound 10.0 µM): 63% | residual activity (MYLK (human); compound 50.0 µM): 15% | residual activity (MARK2 (human); compound 10.0 µM): 86% | residual activity (MAP3K11 (human); compound 10.0 µM): 35%
Structure (SMILES): Oc1ccc(/C=C/c2cc(O)cc(O)c2)cc1
